In one assay the target is Mcl-1 protein (UniProtKB Q07820) (Homo sapiens, UniProt Q07820). The assay is described as follows: Inhibition of Mcl-1 by the fluorescence polarisation technique. The settings on record: fluorescein labelled ligand 1 nM, Mcl-1 protein 5 nM, ~2 hours at room temperature; read-out: IC50 (μM) Mcl-1 FP. It is filed as binding. The protocol: The relative binding potency of each compound was determined via Fluorescence Polarisation (FP). The method utilised a Fluorescein labelled ligand (Fluorescein-βAla-Ahx-A-REIGAQLRRMADDLNAQY-OH; mw 2,765) which binds to the Mcl-1 protein (such that Mcl-1 corresponds to the UniProtKB® primary accession number: Q07820) leading to an increased anisotropy measured in milli-polarisation (mP) units using a reader. The addition of a compound which binds competitively to the same site as the ligand will result in a greater proportion of unbound ligand in the system indicated by a decrease in mP units.
An 11 point serial dilution of each compound was prepared in DMSO and 2 μl transferred into flat bottomed, low binding, 384-well plate (final DMSO concentration 5%). 38 μl of buffer (10 mM 4-(2-hydroxyethyl)-1-piperazineethanesulfonic acid [HEPES], 150 mM NaCl, 0.05% Tween 20, pH 7.4), containing the Fluorescein labelled ligand (final concentration 1 nM) and Mcl-1 protein (final concentration 5 nM) was then added.
Assay plates were incubated ˜2 hours at room temperature before FP was measured on a […] Synergy2 reader (Ex. 528 nm, Em. 640 nm, Cut off 510 nm) and mP units calculated. The binding of increasing doses of test compound was expressed as a percentage reduction in mP compared to a window established between ‘5% DMSO only’ and ‘100% inhibition’ controls. 11-point dose response curves were plotted with XL-Fit software using a 4-Parameter Logistic Model (Sigmoidal Dose-Response Model) and the inhibitory concentrations that gave a 50% reduction in mP (IC50) were determined.
In general terms: Fluorescence polarisation rises when a labelled molecule tumbles more slowly, as on binding a larger partner.

For assay [1], the system named is H929 multiple myeloma tumour line. The assay is described as follows: In vitro cytotoxicity (MTT, Microculture Tetrazolium Assay). It is filed as cell-based. The settings on record: Homo sapiens, NCI-H929; H929 cells, 48 hours exposure, cell viability. How it is done: The cytotoxicity studies were carried out on the H929 multiple myeloma tumour line.
The cells are distributed onto microplates and exposed to the test compounds for 48 hours.
The cell viability is then quantified by a colorimetric assay, the Microculture Tetrazolium Assay (Cancer Res., 1987, 47, 939-942).

Sequence of Mcl-1 protein (Q07820 whole entry): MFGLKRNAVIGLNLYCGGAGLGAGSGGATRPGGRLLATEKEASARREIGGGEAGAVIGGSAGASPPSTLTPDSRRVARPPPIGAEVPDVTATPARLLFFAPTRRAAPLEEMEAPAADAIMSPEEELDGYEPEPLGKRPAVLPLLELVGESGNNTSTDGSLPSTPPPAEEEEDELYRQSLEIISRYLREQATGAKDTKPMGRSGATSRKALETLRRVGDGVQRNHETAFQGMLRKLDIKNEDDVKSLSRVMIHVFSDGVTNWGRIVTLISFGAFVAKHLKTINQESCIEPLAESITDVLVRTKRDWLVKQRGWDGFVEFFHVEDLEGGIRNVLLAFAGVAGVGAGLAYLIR

With `COC(=O)OC(C)OC(=O)C(Cc1ccccc1OCc1ccnc(-c2ccccc2OC)n1)Oc1ncnc2sc(-c3ccc(F)cc3)c(-c3ccc(OCCN4CCN(C)CC4)c(Cl)c3C)c12` [Example 1, 1-[(methoxycarbonyl)oxy]ethyl (2R)-2-{[(5Sa)-5-{3-chloro-2-methyl-4-[2-(4-methylpiperazin-1-yl)ethoxy]phenyl}-6-(4-fluorophenyl)thieno[2,3-d]pyrimidin-4-yl]oxy}-3-(2-{[2-(2-methoxyphenyl)pyrimidin-4-yl]methoxy}phenyl)propanoate], at Mcl-1 protein, the IC50 was determined as 0.037 µM.

Turning to `CCOC(=O)OC(C)OC(=O)C(Cc1ccccc1OCc1ccnc(-c2ccccc2OC)n1)Oc1ncnc2sc(-c3ccc(F)cc3)c(-c3ccc(OCCN4CCN(C)CC4)c(Cl)c3C)c12` [Example 2, 1-[(ethoxycarbonyl)oxy]ethyl (2R)-2-{[(5Sa)-5-{3-chloro-2-methyl-4-[2-(4-methylpiperazin-1-yl)ethoxy]phenyl}-6-(4-fluorophenyl)thieno[2,3-d]pyrimidin-4-yl]oxy}-3-(2-{[2-(2-methoxyphenyl)pyrimidin-4-yl]methoxy}phenyl)propanoate], the IC50 on Mcl-1 protein was 0.361 µM.

Consider `COc1ccccc1-c1nccc(COc2ccccc2CC(Oc2ncnc3sc(-c4ccc(F)cc4)c(-c4ccc(OCCN5CCN(C)CC5)c(Cl)c4C)c23)C(=O)OC(C)OC(=O)OC(C)C)n1` [Example 3, 1-{[(propan-2-yloxy)carbonyl]oxy}ethyl (2R)-2-{[(5Sa)-5-{3-chloro-2-methyl-4-[2-(4-methylpiperazin-1-yl)ethoxy]phenyl}-6-(4-fluorophenyl)thieno[2,3-d]pyrimidin-4-yl]oxy}-3-(2-{[2-(2-methoxyphenyl)pyrimidin-4-yl]methoxy}phenyl)propanoate], for which the IC50 at Mcl-1 protein stood at 0.292 µM.

On to `COc1ccccc1-c1nccc(COc2ccccc2CC(Oc2ncnc3sc(-c4ccc(F)cc4)c(-c4ccc(OCCN5CCN(C)CC5)c(Cl)c4C)c23)C(=O)OC(C)OC(=O)OC(C)(C)C)n1` [Example 4, 1-[(tert-butoxycarbonyl)oxy]ethyl (2R)-2-{[(5Sa)-5-{3-chloro-2-methyl-4-[2-(4-methylpiperazin-1-yl)ethoxy]phenyl}-6-(4-fluorophenyl)thieno[2,3-d]pyrimidin-4-yl]oxy}-3-(2-{[2-(2-methoxyphenyl)pyrimidin-4-yl]methoxy}phenyl)propanoate], for which the IC50 at Mcl-1 protein is 0.959 µM.

Turning to `COc1ccccc1-c1nccc(COc2ccccc2CC(Oc2ncnc3sc(-c4ccc(F)cc4)c(-c4ccc(OCCN5CCN(C)CC5)c(Cl)c4C)c23)C(=O)OC(C)OC(=O)OC2CCCC2)n1` [Example 5, 1-{[(cyclopentyloxy)carbonyl]oxy}ethyl (2R)-2-{[(5Sa)-5-{3-chloro-2-methyl-4-[2-(4-methylpiperazin-1-yl)ethoxy]phenyl}-6-(4-fluorophenyl)thieno[2,3-d]pyrimidin-4-yl]oxy}-3-(2-{[2-(2-methoxyphenyl)pyrimidin-4-yl]methoxy}phenyl)propanoate], the IC50 at Mcl-1 protein was determined as 0.37 µM.

For the compound `CCCCCCCCOC(=O)OC(C)OC(=O)C(Cc1ccccc1OCc1ccnc(-c2ccccc2OC)n1)Oc1ncnc2sc(-c3ccc(F)cc3)c(-c3ccc(OCCN4CCN(C)CC4)c(Cl)c3C)c12` [Example 6, 1-{[(octyloxy)carbonyl]oxy}ethyl (2R)-2-{[(5Sa)-5-{3-chloro-2-methyl-4-[2-(4-methylpiperazin-1-yl)ethoxy]phenyl}-6-(4-fluorophenyl)thieno[2,3-d]pyrimidin-4-yl]oxy}-3-(2-{[2-(2-methoxyphenyl)pyrimidin-4-yl]methoxy}phenyl)propanoate], at Mcl-1 protein, the IC50 stood at 0.51 µM.

As for `COc1ccccc1-c1nccc(COc2ccccc2CC(Oc2ncnc3sc(-c4ccc(F)cc4)c(-c4ccc(OCCN5CCN(C)CC5)c(Cl)c4C)c23)C(=O)OC(C)OC(=O)N(C)C)n1` [Example 7, 1-[(dimethylcarbamoyl)oxy]ethyl (2R)-2-{[(5Sa)-5-{3-chloro-2-methyl-4-[2-(4-methylpiperazin-1-yl)ethoxy]phenyl}-6-(4-fluorophenyl)thieno[2,3-d]pyrimidin-4-yl]oxy}-3-(2-{[2-(2-methoxyphenyl)pyrimidin-4-yl]methoxy}phenyl)propanoate], the IC50 on Mcl-1 protein is 0.438 µM.

As to `CCN(CC)C(=O)OC(C)OC(=O)C(Cc1ccccc1OCc1ccnc(-c2ccccc2OC)n1)Oc1ncnc2sc(-c3ccc(F)cc3)c(-c3ccc(OCCN4CCN(C)CC4)c(Cl)c3C)c12` [Example 8, 1-[(diethylcarbamoyl)oxy]ethyl (2R)-2-{[(5Sa)-5-{3-chloro-2-methyl-4-[2-(4-methylpiperazin-1-yl)ethoxy]phenyl}-6-(4-fluorophenyl)thieno[2,3-d]pyrimidin-4-yl]oxy}-3-(2-{[2-(2-methoxyphenyl)pyrimidin-4-yl]methoxy}phenyl)propanoate], on Mcl-1 protein, the IC50 is 1.41 µM.

In the case of `COc1ccccc1-c1nccc(COc2ccccc2CC(Oc2ncnc3sc(-c4ccc(F)cc4)c(-c4ccc(OCCN5CCN(C)CC5)c(Cl)c4C)c23)C(=O)OC(C)OC(=O)N2CCOCC2)n1` [Example 9, 1-{[(2R)-2-{[(5Sa)-5-{3-chloro-2-methyl-4-[2-(4-methylpiperazin-1-yl)ethoxy]phenyl}-6-(4-fluorophenyl)thieno[2,3-d]pyrimidin-4-yl]oxy}-3-(2-{[2-(2-methoxyphenyl)pyrimidin-4-yl]methoxy}phenyl)propanoyl]oxy}ethyl morpholine-4-carboxylate], on Mcl-1 protein, the IC50 is 0.52 µM.

`COCCNC(=O)OC(C)OC(=O)C(Cc1ccccc1OCc1ccnc(-c2ccccc2OC)n1)Oc1ncnc2sc(-c3ccc(F)cc3)c(-c3ccc(OCCN4CCN(C)CC4)c(Cl)c3C)c12` [Example 10, 1-{[(2-methoxyethyl)carbamoyl]oxy}ethyl (2R)-2-{[(5Sa)-5-{3-chloro-2-methyl-4-[2-(4-methylpiperazin-1-yl)ethoxy]phenyl}-6-(4-fluorophenyl)thieno[2,3-d]pyrimidin-4-yl]oxy}-3-(2-{[2-(2-methoxyphenyl)pyrimidin-4-yl]methoxy}phenyl) propanoate]: the IC50 on Mcl-1 protein came out at 0.147 µM.

Take `COCCN(CCOC)C(=O)OC(C)OC(=O)C(Cc1ccccc1OCc1ccnc(-c2ccccc2OC)n1)Oc1ncnc2sc(-c3ccc(F)cc3)c(-c3ccc(OCCN4CCN(C)CC4)c(Cl)c3C)c12` [Example 11, 1-{[bis(2-methoxyethyl)carbamoyl]oxy}ethyl (2R)-2-{[(5Sa)-5-{3-chloro-2-methyl-4-[2-(4-methylpiperazin-1-yl)ethoxy]phenyl}-6-(4-fluorophenyl)thieno[2,3-d]pyrimidin-4-yl]oxy}-3-(2-{[2-(2-methoxyphenyl)pyrimidin-4-yl]methoxy}phenyl)propanoate]: the IC50 at Mcl-1 protein was found to be 0.551 µM.

For `COC(=O)CN(C)C(=O)OC(C)OC(=O)C(Cc1ccccc1OCc1ccnc(-c2ccccc2OC)n1)Oc1ncnc2sc(-c3ccc(F)cc3)c(-c3ccc(OCCN4CCN(C)CC4)c(Cl)c3C)c12` [Example 12, 1-{[(2-methoxy-2-oxoethyl)(methyl)carbamoyl]oxy}ethyl (2R)-2-{[(5Sa)-5-{3-chloro-2-methyl-4-[2-(4-methylpiperazin-1-yl)ethoxy]phenyl}-6-(4-fluorophenyl)thieno[2,3-d]pyrimidin-4-yl]oxy}-3-(2-{[2-(2-methoxyphenyl)pyrimidin-4-yl]methoxy}phenyl)propanoate], the IC50 on Mcl-1 protein came to 0.318 µM.

For the compound `COc1ccccc1-c1nccc(COc2ccccc2CC(Oc2ncnc3sc(-c4ccc(F)cc4)c(-c4ccc(OCCN5CCN(C)CC5)c(Cl)c4C)c23)C(=O)OCOP(=O)(O)O)n1` [Example 13, (phosphonooxy)methyl (2R)-2-{[(5Sa)-5-{3-chloro-2-methyl-4-[2-(4-methylpiperazin-1-yl)ethoxy]phenyl}-6-(4-fluorophenyl)thieno[2,3-d]pyrimidin-4-yl]oxy}-3-(2-{[2-(2-methoxyphenyl)pyrimidin-4-yl]methoxy}phenyl)propanoate], at Mcl-1 protein, the IC50 came to 0.0032 µM.

In the case of `CCOC(=O)OC(C)OC(=O)[C@@H](Cc1ccccc1OCc1ccnc(-c2ccccc2OC)n1)Oc1ncnc2sc(-c3ccc(F)cc3)c(-c3c(C)c(Cl)c(OCCN4CCN(C)CC4)c(Cl)c3C)c12` (stereo partly drawn) [Example 15, 1-[(ethoxycarbonyl)oxy]ethyl (2R)-2-{[5-{3,5-dichloro-2,6-dimethyl-4-[2-(4-methylpiperazin-1-yl)ethoxy]phenyl}-6-(4-fluorophenyl)thieno[2,3-d]pyrimidin-4-yl]oxy}-3-(2-{[2-(2-methoxyphenyl)pyrimidin-4-yl]methoxy}phenyl)propanoate], the IC50 at Mcl-1 protein turned out to be 0.453 µM; in assay [1] it was 0.068 µM.

By IC50 is commonly meant the midpoint of a concentration-inhibition curve.

Source of the values: patent publication US10227358B2, “Hydroxyester derivatives, a process for their preparation and pharmaceutical compositions containing them” (LES LABORATOIRES SERVIER, priority 2015, dated 2019).
